Experiment [1] is described as follows: growth inhibition of yeast DHODH-expressing 3D7 parasites – SYBR Green, dry powder samples, dose response (AID 1159570).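 Further: parasite growth measured after 72 hours of compound exposure.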 It is filed as functional, cell-based.
A short description of experiment [2]: Dd2 parasite growth inhibition in erythrocytes – SYBR Green, dry powder samples, set 9, dose response (AID 1159568). It is filed as functional, cell-based.
Experiment [3] is described as follows: P. falciparum Dd2 growth inhibitors, dose response, SYBR Green, cherry-picked samples (AID 1159567). The experiment is classed as functional, cell-based.
Experiment [4] can be described thus: Dd2 malaria parasite growth inhibition potency – SYBR Green, dry powder samples, dose response (AID 1159566).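 Further: potency for growth inhibition with lower SYBR green DNA signal.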 It is filed as functional, cell-based.
Experiment [5] can be described thus: toxicity to human hepatoma HepG2 cells – cell-based, cherry-picked samples, cytotoxicity control, dose response (AID 1159577). It is filed as functional.
Experiment [6] can be described thus: Plasmodium falciparum Dd2 Sybr green parasite growth Measured in Cell-Based and Microorganism Combination System Using Plate Reader - 2153-01_Inhibitor_Dose_DryPowder_Activity_Set3. The experiment is classed as functional.
Experiment [7] can be described thus: growth inhibition of PfATP4-mutant resistant parasites – NITD609-resistant line, SYBR Green, dry powder, dose response (AID 1159571).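 Further: parasites synchronized at ring stage by sorbitol before testing.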 The experiment is classed as functional, cell-based.
The target of another experiment is Nonstructural protein 1 (Influenza A virus, UniProt Q194T2). The experiment is classed as functional, Influenza A virus (A/California/07/2009(H1N1)).
Experiment [8] deals with T1, Corticotropin-releasing factor receptor 2/Corticotropin-releasing factor-binding protein (Homo sapiens, UniProt P24387+Q13324).
T1 sequence (Q13324 whole entry): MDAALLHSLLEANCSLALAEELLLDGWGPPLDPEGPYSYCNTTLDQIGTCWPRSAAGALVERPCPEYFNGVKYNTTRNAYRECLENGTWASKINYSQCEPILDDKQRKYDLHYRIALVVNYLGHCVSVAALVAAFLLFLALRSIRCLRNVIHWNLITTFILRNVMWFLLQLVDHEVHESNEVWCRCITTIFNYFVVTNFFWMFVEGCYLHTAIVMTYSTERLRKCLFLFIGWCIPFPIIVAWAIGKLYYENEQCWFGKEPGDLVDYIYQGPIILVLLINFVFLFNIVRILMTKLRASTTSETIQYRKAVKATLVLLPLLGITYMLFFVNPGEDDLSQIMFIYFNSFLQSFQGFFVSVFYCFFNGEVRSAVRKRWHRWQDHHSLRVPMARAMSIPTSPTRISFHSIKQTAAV
T1 sequence (P24387 whole entry): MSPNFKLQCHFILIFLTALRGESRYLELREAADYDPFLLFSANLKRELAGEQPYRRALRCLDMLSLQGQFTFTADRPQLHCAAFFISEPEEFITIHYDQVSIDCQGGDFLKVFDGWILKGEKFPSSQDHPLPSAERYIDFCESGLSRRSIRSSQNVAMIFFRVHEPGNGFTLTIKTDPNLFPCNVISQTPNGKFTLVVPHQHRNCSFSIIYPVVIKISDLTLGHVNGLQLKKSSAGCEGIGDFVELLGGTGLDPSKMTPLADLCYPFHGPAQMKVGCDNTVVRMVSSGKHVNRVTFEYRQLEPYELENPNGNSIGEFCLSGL
In words: Dose Response confirmation of uHTS hits for small molecule antagonists of the CRF-binding protein and CRF-R2 receptor complex. The experiment is classed as functional. Particulars: read-out: IC50_Mean.

In experiment [9] the target is T1, Corticotropin-releasing factor receptor 2/Corticotropin-releasing factor-binding protein. In words: activators of CRF receptor 2 with binding protein – uHTS hits, confirmation (AID 602473). It is filed as functional. Conditions: read-out: EC50_Mean.
Experiment [10] in a line: viability loss in HeLa cells – cytotoxicity control for MgcRacGAP inhibitor project, dose response (AID 624300). It is filed as functional.
In experiment [11] the target is T2, Rac GTPase-activating protein 1 (Homo sapiens, UniProt Q9H0H5).
T2 sequence (Q9H0H5 whole entry): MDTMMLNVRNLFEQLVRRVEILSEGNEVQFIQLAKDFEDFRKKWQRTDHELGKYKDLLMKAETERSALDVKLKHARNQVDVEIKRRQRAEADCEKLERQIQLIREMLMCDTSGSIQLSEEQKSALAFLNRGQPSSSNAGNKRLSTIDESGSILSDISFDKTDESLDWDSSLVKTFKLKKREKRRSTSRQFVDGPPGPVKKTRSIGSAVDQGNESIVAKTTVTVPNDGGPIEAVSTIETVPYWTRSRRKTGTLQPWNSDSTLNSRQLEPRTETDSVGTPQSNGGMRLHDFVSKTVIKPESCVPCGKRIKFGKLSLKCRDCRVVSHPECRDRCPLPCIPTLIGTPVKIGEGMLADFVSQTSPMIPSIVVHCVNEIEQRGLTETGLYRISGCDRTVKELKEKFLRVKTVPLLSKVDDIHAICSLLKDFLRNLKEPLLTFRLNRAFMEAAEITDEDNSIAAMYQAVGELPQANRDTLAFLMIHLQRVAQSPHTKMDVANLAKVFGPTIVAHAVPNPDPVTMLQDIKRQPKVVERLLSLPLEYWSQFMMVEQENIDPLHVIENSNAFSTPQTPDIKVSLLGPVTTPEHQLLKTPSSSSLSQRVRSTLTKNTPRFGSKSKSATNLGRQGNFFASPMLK
Nature of the experiment: blockers of MgcRacGAP-driven Rac1 GTP hydrolysis – biochemical, ADP Hunter fluorescence, primary and confirmatory, confirmation (AID 624330). It is filed as functional.

Experiment [12] has as its target T3, COUP transcription factor 2 (Homo sapiens, UniProt P24468).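 Further: HEK293 cells transiently cotransfected with COUP-TFII expression vector and reporter; luciferase reporter luminescence driven by COUP-TFII from the pX2-168 reporter plasmid.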
T3 sequence (P24468 whole entry): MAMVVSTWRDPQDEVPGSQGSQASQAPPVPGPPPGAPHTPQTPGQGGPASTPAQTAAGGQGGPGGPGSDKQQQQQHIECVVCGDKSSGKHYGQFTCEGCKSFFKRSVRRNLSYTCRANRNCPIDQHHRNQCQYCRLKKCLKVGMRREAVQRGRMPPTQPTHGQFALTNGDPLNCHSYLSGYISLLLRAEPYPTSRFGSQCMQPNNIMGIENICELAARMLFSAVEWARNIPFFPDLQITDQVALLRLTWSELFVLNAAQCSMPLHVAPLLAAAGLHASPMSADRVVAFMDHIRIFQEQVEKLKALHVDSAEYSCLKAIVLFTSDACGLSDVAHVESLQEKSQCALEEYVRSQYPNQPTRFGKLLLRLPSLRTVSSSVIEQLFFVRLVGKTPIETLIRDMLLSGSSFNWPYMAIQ
Nature of the experiment: Luminescence-based cell-based high throughput dose response assay to identify inhibitors of COUP-TFII (NR2F2). The experiment is classed as functional.

Experiment [13] deals with T4, Histone-lysine N-methyltransferase NSD2 (Homo sapiens, UniProt O96028).
T4 sequence (O96028 whole entry): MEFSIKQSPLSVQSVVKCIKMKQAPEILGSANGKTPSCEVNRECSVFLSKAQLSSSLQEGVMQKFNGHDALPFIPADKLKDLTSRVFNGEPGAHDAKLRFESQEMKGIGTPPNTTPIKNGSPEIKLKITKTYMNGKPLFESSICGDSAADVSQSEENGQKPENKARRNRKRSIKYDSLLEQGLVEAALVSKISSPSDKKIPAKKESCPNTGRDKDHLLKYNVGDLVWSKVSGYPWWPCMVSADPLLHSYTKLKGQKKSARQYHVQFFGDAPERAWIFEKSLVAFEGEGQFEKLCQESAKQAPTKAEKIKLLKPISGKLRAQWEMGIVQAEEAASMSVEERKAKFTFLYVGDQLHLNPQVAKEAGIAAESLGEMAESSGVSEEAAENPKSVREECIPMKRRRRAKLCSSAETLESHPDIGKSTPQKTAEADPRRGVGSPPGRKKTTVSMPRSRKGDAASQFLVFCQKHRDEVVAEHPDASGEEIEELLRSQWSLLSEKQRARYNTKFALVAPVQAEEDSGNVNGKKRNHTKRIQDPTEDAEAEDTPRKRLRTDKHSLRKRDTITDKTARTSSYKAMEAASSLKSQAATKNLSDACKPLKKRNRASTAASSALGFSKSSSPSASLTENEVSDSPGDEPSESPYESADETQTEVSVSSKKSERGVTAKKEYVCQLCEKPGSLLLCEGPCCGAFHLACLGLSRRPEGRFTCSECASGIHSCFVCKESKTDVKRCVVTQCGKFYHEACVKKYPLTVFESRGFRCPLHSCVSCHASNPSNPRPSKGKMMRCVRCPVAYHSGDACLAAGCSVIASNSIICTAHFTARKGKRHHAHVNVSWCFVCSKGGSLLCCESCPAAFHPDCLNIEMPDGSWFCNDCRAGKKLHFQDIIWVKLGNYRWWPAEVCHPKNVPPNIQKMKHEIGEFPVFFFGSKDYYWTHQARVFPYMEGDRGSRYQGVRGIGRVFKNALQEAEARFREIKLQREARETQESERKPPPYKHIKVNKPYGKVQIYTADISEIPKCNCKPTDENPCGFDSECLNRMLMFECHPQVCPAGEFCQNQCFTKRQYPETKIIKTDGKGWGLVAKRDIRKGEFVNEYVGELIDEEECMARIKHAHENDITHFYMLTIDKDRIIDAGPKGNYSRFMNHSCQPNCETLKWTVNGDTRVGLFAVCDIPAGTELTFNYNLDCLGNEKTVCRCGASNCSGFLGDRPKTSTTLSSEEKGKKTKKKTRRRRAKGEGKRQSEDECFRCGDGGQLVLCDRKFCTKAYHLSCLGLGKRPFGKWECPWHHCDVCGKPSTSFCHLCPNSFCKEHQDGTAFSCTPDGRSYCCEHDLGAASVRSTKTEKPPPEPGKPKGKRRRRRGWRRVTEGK
It is filed as biochemical.

The nature of experiment [14]: viability loss in THP-1 monocytes – THP-1 cells, cytotoxicity control for Vif-APOBEC3G degradation inhibitor project, dose response (AID 1117359). It is filed as functional. Particulars: THP-1.
In experiment [15] the target is Glutathione-S-transferase (Schistosoma japonicum, UniProt Q26513). Nature of the experiment: GST-antibody interaction or FRET quenching – biochemical, TR-FRET, artefact control for Vif-APOBEC3G degradation inhibitor project, dose response (AID 1117362). It is filed as functional. For orientation: Time-resolved FRET reads energy transfer from a long-lived donor to a nearby acceptor.

Experiment [16] has as its target Sphingosine 1-phosphate receptor 2 (Homo sapiens, UniProt O95136). In words: Dose Response Cell Based Assay for Antagonists of the S1P2 Receptor. [Related pubchem assays: 856, 736 ]. The experiment is classed as functional.
Experiment [17] in a line: HPDE-C7 pancreatic duct cell viability loss – fluorescence, HTS (AID 430). It is filed as functional, cell-based. Particulars: Homo sapiens.
Experiment [18] can be described thus: viability loss of HPDE-C7K cells – cell-based, fluorescence, HTS, primary screen (AID 431). It is filed as functional. Conditions: Homo sapiens.
The subject of the next experiment is INS1. Nature of the experiment: INS-1E survival protection against cytokine death – cell-based, luminescence, retest, dose response (AID 449756).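 Further: cell death triggered by IL-1 beta plus TNF-alpha plus IFN-gamma mixture; protective hits raise ATP signal compared with cytokine alone wells.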 It is filed as functional. Conditions: Rattus norvegicus.
Experiment [19] in a line: blockers of HIV-1 envelope-mediated cell-cell fusion – cherry-pick, dose response (AID 652057). It is filed as functional, cell-based.
Experiment [20] can be described thus: viability loss in CEM21 cells – cell-based, CellTiter-Glo luminescence, cherry-picked, cytotoxicity control for viral fusion inhibitor project, dose response (AID 652042).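 Further: potency for signal decrease meaning cytotoxicity.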 It is filed as functional. Background: Cellular ATP, detected with luciferase, serves as a proxy for viable cell number.
The nature of experiment [21]: blockers of HIV-1 ZM109 envelope-driven cell-cell fusion – HeLa effector, CEM target cells, luciferase, cherry-pick, dose response (AID 652058).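 Further: luciferase signal from HIV-1 Env mediated cell-cell fusion of effector and target cells.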 The experiment is classed as functional, cell-based.
A short description of experiment [22]: HIV-1 AD8 envelope cell-cell fusion blockers – cherry-pick, dose response (AID 652062).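 Further: luciferase signal from cell-cell fusion driven by HIV-1 clade B AD8 Env; potency is for inhibitors of fusion seen as a drop in luminescence.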 It is filed as functional, cell-based.
Experiment [23] in a line: inhibition of Env-driven cell fusion – HIV entry, plate reader, dry powder, dose response (AID 687023). The experiment is classed as functional, cell-based.
A short description of experiment [24]: viability loss in CEM21 cells – cell-based, plate reader, dry powder, cytotoxicity control, dose response (AID 687026). The experiment is classed as functional.
Experiment [25] is described as follows: Dd2 parasite growth inhibition in erythrocytes – SYBR Green, dry powder samples, set 4, dose response (AID 1159572). It is filed as functional, cell-based.

Structures are written as SMILES. Values joined by “and” are separate entries in the source; they are usually repeats but may differ in a detail not shown here. Equal entries are not always repeated. Active and inactive are the calls of the source. A value given as a limit tells only on which side of the number the result lay.

Nonstructural protein 1, sequence (Q194T2 whole entry): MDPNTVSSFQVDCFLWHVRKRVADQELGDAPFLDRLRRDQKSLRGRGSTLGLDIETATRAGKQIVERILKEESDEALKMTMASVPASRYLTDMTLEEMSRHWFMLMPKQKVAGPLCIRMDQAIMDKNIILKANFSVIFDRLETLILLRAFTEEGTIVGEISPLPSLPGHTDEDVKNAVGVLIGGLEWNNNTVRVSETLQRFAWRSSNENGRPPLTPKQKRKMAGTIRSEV
Glutathione-S-transferase, sequence (Q26513 whole entry): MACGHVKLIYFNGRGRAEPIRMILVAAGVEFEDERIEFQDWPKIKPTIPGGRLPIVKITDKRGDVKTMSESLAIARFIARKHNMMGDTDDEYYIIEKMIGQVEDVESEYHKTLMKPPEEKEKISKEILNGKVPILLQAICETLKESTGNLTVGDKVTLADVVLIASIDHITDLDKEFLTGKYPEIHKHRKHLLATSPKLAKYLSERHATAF
Sphingosine 1-phosphate receptor 2, sequence (O95136 whole entry): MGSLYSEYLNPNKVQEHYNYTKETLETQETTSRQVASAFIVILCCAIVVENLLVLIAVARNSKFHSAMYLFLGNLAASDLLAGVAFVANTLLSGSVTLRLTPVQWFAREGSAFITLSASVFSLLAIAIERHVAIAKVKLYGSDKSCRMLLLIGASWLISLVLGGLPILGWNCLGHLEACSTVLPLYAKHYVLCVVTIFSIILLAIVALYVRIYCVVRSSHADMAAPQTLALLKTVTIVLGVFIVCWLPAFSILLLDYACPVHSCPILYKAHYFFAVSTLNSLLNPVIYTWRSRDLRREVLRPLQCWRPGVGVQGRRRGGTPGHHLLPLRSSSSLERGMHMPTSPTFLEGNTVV

The AC50 is the midpoint of the concentration-response curve, whichever way the signal moves. As to `CCCNC(=O)N1[C@H](C#N)[C@H](c2ccc(-c3ccccc3F)cc2)[C@H]1CO`, the AC50 in experiment [1] was 14.9 µM (active); in experiment [2], 0.0988 µM (active); in [3] it was < 0.35 µM (active); in [4] it was 0.00986 µM (active); in experiment [5] it was > 42 µM (inactive); in [6] it was 0.0589 µM (active). Moreover, the AC50 in experiment [7] was 0.0114 µM (active).

As a reminder, the CC50 is the concentration giving 50% cytotoxicity. As to `Cc1cc2c(=Cc3ccc(N(C)C)cc3)c3ccccc3n2[n+]1C`, the IC50 at Nonstructural protein 1 is 20.9 µM (active); in experiment [8], > 47.1 µM (inactive); in experiment [11] it was 45.4 µM (active); in experiment [12], 3.87 µM (active); in experiment [15], 7.36 µM (active). Moreover, the EC50 in experiment [9] is > 53 µM (inactive). Moreover, the values for the CC50 in experiment [10] and in experiment [14] were 18.5 µM (active) and 1.02 µM (active), respectively. In addition, the AC50 in [13] was 17.6 µM (active).

Take `COc1ccc2c(c1)[nH]c1c(N3CCN(Cc4ccc5c(c4)OCO5)CC3)ncnc12`: the IC50 in [16] was 4.01 µM (active); in [12], 6.68 µM (active). In addition, the results for the EC50 in experiment [17] and in experiment [18] were 16.7 µM (active) and 14.8 µM (active), respectively. For the same molecule, the AC50 in the experiment with INS1 was 2.06 µM (active); in experiment [19], 3.89 µM (active); in experiment [20], 38 µM (active); in experiment [21] it was 6.42 µM (active); in experiment [22], 4.68 µM (active); in [23], 2.72 µM (active) and 5.39 µM (active). In addition, the AC50 in [24] was 35.8 µM (active) and 32.4 µM (active).

Regarding `COc1ccc2c3c([nH]c2c1)[C@H](CO)N(C(C)=O)CC31CCN(S(=O)(=O)c2cccs2)CC1`, the half-maximal activity concentration (AC50) in [25] is 8.2 µM (active).

The record behind these values is ChEMBL document CHEMBL1201862, “PubChem BioAssay data set” (2004).
